Data taken from patent US11279733B2, “Peptide antibiotics” (priority 2017, dated 2022).
Converted amounts (≈) assume the structure as drawn. Where two headings read alike, the source gives them in different places. Positions of bridges follow the written chain, without caps; N, C: chain ends. Non-standard residues stand in square brackets, D forms with d. Residues, ends and D or L forms follow the SMILES beside them. ξ: configuration not given here. *: point of attachment. Decanoyl(3R-OH) = CCCCCCC[C@@H](O)CC(=O)*; Decanoyl(3ξ-OH) = CCCCCCCC(O)CC(=O)*; dDab = NCC[C@@H](N)C(=O)O; Dab = NCC[C@H](N)C(=O)O

How the values were obtained:
[1] = in vitro; settings: human
Procedure, shortened: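 Cells were seeded at 4000 per well and allowed to attach for 24 h at 37 °C, 5% CO2, then exposed to compounds for 24 h. Resazurin (5 μM) was added for 2 h at 37 °C and fluorescence read at 560/590 nm. CC50 was derived by curve fitting of dose-dependent growth inhibition.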

[2] = system: E. coli ATCC 25922; settings: ATCC 25922
Procedure, shortened: (§1)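 Mid-log cultures grown in Mueller Hinton broth at 37° C were tested by 2-fold broth microdilution at 5×10^5 CFU/mL final. Compounds were dissolved in water and tested over a final range of 32 to 0.015 μg/mL.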

[3] = system: A. baumannii ATCC 19606; settings: ATCC 19606
Procedure, shortened: as §1

[4] = system: S. aureus ATCC 25923, MSSA; settings: ATCC 25923
Procedure, shortened: as §1

[5] = system: K. pneumoniae GN_106, PmxR; settings: GN 106, PmxR
Procedure, shortened: as §1

[6] = system: P. aeruginosa ATCC 27853; settings: ATCC 27853
Procedure, shortened: as §1

[7] = system: K. pneumoniae ATCC 13883; settings: ATCC 13883
Procedure, shortened: as §1

[8] = system: K. pneumoniae ATCC 700603, MDR; settings: ATCC 700603
Procedure, shortened: as §1

[9] = system: A. baumannii GN_093 PmxR; settings: GN 093 PmxR
Procedure, shortened: as §1

[10] = system: K. pneumoniae ATCC BAA-2146, NDM-1 pos; settings: ATCC BAA-2146
Procedure, shortened: as §1

[11] = system: P. aeruginosa GN_105, PmxR; settings: GN 105, PmxR
Procedure, shortened: as §1

[12] = system: P. aeruginosa GN_043, PmxR
Procedure, shortened: as §1

[13] = system: K. pneumoniae GN_102 PmxR; settings: GN 102 PmxR
Procedure, shortened: as §1

For `CCCCCCC[C@@H](O)CC(=O)N[C@H](CCN)C(=O)N[C@H]1CCNC(=O)[C@H](CC(C)C)NC(=O)[C@H](CCN)NC(=O)[C@H](CCN)NC(=O)[C@H](CC(C)C)NC(=O)[C@@H](Cc2ccccc2)NC(=O)[C@H](CCCCN)NC1=O` [compound 995, 3(R)OH-nC9CO-D-Dab-cyc[L-Dab-L-Lys-D-Phe-L-Leu-L-Dab-L-Dab-L-Leu]] ({Decanoyl(3R-OH)}-[dDab][Dab]K[dF]L[Dab][Dab]L; lactam 2-C), the CC50 at 24 h [1] was over 300 µM, the “MIC, E. coli ATCC 25922” value [2] was 8 µg/mL (≈ 7.46 µM) and the “MIC, A. baumannii ATCC 19606” value [3] was over 32 µg/mL. The “MIC, S. Aureus ATCC 25923, MSSA” value [4] was 32 µg/mL (≈ 29.8 µM), the “MIC, K. pneumoniae Cl 138-16347-20362, PmxR” value [5] was 8 µg/mL (≈ 7.46 µM) and the “MIC, P. aeruginosa ATCC 27853” value [6] was 4 µg/mL (≈ 3.73 µM). The “MIC, K. pneumoniae ATCC 13883” value [7] was 8 µg/mL (≈ 7.46 µM), the “MIC, K. pneumoniae ATCC 700603, MDR” value [8] was 8 µg/mL (≈ 7.46 µM) and the “MIC, A. baumannii Cl Ptyela 10073 4512:2, PmxR” value [9] was 32 µg/mL (≈ 29.8 µM). For the same compound, the “MIC, K. pneumoniae ATCC BAA-2146, NDM-1 pos” value [10] was 8 µg/mL (≈ 7.46 µM), the “MIC, P. aeruginosa PA9704, PmxR” value [11] was 8 µg/mL (≈ 7.46 µM) and the “MIC, P. aeruginosa FADDI-PA070, PmxR” value ([12]; Table 5, polymyxin-resistant) was 8 µg/mL (≈ 7.46 µM). The “MIC, K. pneumoniae Cl Koprana 10065 0661:1, PmxR” value [13] was 4 µg/mL (≈ 3.73 µM).

With `CCCCCCC[C@@H](O)CC(=O)N[C@H](CCN)C(=O)N[C@H]1CCNC(=O)[C@H](CC(C)C)NC(=O)[C@H](CCN)NC(=O)[C@H](CCN)NC(=O)[C@H](CC(C)C)NC(=O)[C@H](Cc2ccccc2)NC(=O)[C@H](CCN)NC1=O` [compound 5002, 3(R)OH-nC9CO-D-Dab-cyc[L-Dab-L-Dab-L-Phe-L-Leu-L-Dab-L-Dab-L-Leu]] ({Decanoyl(3R-OH)}-[dDab][Dab][Dab]FL[Dab][Dab]L; lactam 2-C) the CC50 at 24 h [1] was over 300 µM, the “MIC E. coli ATCC 25922” value [2] was 32 µg/mL (≈ 30.6 µM) and the “MIC A. baumannii ATCC 19606” value [3] was over 32 µg/mL. The “MIC S. aureus ATCC 25923, MSSA” value [4] was 32 µg/mL (≈ 30.6 µM), the “MIC K. pneumoniae GN_106, PmxR” value [5] was over 32 µg/mL and the “MIC P. aeruginosa ATCC 27853” value [6] was 4 µg/mL (≈ 3.83 µM). For the same compound, the “MIC K. pneumoniae ATCC 13883” value [7] was over 32 µg/mL, the “MIC K. pneumoniae ATCC 700603, MDR” value [8] was 16 µg/mL (≈ 15.3 µM) and the “MIC A. baumannii GN_093 PmxR” value [9] was over 32 µg/mL. For the same compound, the “MIC K. pneumoniae ATCC BAA-2146, NDM-1 pos” value [10] was 16 µg/mL (≈ 15.3 µM), the “MIC P. aeruginosa GN_105, PmxR” value [11] was over 32 µg/mL and the “MIC P. aeruginosa GN_043, PmxR” value ([12]; P. aeruginosa GN_043, PmxR) was 8 µg/mL (≈ 7.66 µM). For the same compound, the “MIC K. pneumoniae GN_102 PmxR” value [13] was 32 µg/mL (≈ 30.6 µM).

For `CCCCCCCC(O)CC(=O)N[C@H](CCN)C(=O)N[C@H]1CCNC(=O)[C@H](CC(C)C)NC(=O)[C@H](CCN)NC(=O)[C@H](CCN)NC(=O)[C@H](CC(C)C)NC(=O)[C@@H](Cc2ccccc2)NC(=O)[C@H](CCN)NC1=O` (stereo partly drawn) [compound 5013, 3OH-nC9CO-D-Dab-cyc[L-Dab-L-Dab-D-Phe-L-Leu-L-Dab-L-Dab-L-Leu]] ({Decanoyl(3ξ-OH)}-[dDab][Dab][Dab][dF]L[Dab][Dab]L; lactam 2-C), the CC50 at 24 h [1] was over 300 µM, the “MIC E. coli ATCC 25922” value [2] was 8 µg/mL (≈ 7.66 µM) and the “MIC A. baumannii ATCC 19606” value [3] was 16 µg/mL (≈ 15.3 µM). The “MIC S. aureus ATCC 25923, MSSA” value [4] was 16 µg/mL (≈ 15.3 µM), the “MIC K. pneumoniae GN_106, PmxR” value [5] was 16 µg/mL (≈ 15.3 µM) and the “MIC P. aeruginosa ATCC 27853” value [6] was 2 µg/mL (≈ 1.92 µM). For the same compound, the “MIC K. pneumoniae ATCC 13883” value [7] was 4 µg/mL (≈ 3.83 µM), the “MIC K. pneumoniae ATCC 700603, MDR” value [8] was 8 µg/mL (≈ 7.66 µM) and the “MIC A. baumannii GN_093 PmxR” value [9] was 8 µg/mL (≈ 7.66 µM). The “MIC K. pneumoniae ATCC BAA-2146, NDM-1 pos” value [10] was 16 µg/mL (≈ 15.3 µM), the “MIC P. aeruginosa GN_105, PmxR” value [11] was 2 µg/mL (≈ 1.92 µM) and the “MIC P. aeruginosa GN_043, PmxR” value [12] was 2 µg/mL (≈ 1.92 µM). For the same compound, the “MIC K. pneumoniae GN_102 PmxR” value [13] was 4 µg/mL (≈ 3.83 µM).
